Data set [1] is described as follows: Toxicity in BALB/c mouse assessed as liver damage at 10 mg/kg, iv administered once daily for 21 days by H and E staining based analysis. The format is organism-based. Particulars: in vivo, 504 h, time 21 day.
Data set [2] in a line: MRT (0 to t) in Sprague-Dawley rat 2 mg/kg, iv by LC-MS/MS analysis. The format is ADME, organism-based. Particulars: in vivo.
Data set [3] concerns the target Protein cereblon/Androgen receptor (Homo sapiens, UniProt P10275+Q96SW2). Description: PROTAC activity at full length Androgen receptor/CRBN in human 22Rv1 cells assessed as reduction in full length androgen receptor level at 1 uM by Western blot analysis. Particulars: time 6.0 hrs. The format is cell-based.

In general, MRT last refers to a mean duration of stay, worked out from the concentration-time curve.

Chain of Protein cereblon/Androgen receptor (P10275 whole entry, looked up): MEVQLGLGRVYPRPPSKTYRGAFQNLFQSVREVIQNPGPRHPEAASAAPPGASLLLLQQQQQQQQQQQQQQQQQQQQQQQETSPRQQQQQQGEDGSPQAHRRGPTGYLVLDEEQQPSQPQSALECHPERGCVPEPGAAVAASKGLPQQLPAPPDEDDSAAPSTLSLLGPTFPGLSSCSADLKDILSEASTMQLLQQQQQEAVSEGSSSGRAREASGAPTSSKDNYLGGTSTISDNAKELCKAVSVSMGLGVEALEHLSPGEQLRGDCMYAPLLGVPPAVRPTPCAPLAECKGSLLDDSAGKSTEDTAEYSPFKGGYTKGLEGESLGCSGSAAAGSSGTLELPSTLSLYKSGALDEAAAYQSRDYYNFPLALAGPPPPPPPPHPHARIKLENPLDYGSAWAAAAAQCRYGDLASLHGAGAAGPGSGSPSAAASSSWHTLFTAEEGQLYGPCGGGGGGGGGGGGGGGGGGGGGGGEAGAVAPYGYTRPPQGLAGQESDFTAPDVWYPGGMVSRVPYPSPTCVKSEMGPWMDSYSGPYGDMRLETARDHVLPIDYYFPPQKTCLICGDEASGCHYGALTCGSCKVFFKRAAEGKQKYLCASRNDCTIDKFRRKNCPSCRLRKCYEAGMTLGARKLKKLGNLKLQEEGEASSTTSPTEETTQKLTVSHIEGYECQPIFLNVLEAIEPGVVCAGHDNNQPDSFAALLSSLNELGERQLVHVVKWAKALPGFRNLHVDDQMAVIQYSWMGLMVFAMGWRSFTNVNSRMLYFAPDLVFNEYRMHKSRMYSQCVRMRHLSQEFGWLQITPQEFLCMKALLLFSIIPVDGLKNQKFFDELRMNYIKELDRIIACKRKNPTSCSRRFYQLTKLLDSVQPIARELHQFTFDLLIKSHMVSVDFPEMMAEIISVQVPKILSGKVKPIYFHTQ
Chain of Protein cereblon/Androgen receptor (Q96SW2 whole entry, looked up): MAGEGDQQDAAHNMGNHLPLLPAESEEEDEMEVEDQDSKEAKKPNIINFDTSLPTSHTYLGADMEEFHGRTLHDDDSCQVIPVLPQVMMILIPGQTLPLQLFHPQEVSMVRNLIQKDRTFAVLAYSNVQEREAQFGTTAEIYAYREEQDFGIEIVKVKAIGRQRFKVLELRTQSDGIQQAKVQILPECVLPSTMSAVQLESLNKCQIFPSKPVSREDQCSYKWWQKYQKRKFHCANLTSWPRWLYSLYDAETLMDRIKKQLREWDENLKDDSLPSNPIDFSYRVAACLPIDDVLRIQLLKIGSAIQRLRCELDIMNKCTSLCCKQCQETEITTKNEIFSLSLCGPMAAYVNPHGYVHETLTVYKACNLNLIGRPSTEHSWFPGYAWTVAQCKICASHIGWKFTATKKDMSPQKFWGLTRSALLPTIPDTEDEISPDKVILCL

With `CC(C)(c1ccc(OCCNc2cccc3c2C(=O)N(C2CCC(=O)NC2=O)C3=O)cc1)c1ccc(OCc2cccc(N3CCOCC3)n2)cc1` (stereo not drawn), the Activity entry in data set [1] was “Non-toxic”; in data set [3] it was “Time-dependent-effect”. The MRT last in data set [2] stood at 32.4 min.

The values above are taken from ChEMBL document CHEMBL6153032, “Discovery of a highly potent, N-terminal domain-targeting degrader of AR-FL/AR-V7 for the treatment of prostate cancer” (Eur J Med Chem, 2025).
